Measured values as given in patent publication US10428082B2, “Triazole derivatives of melampomagnolide B and methods of use thereof” (BioVentures, LLC, priority 2016, dated 2019).
Like-named read-outs stand apart in the source and are kept apart here.

Experiments:
A549/ATCC = experiment: NCI 60 growth inhibition; format: cell-based, human; details: Homo sapiens, Non-Small Cell Lung Cancer, Table 2
Method: (§1) The above triazole derivatives of melampomagnolide B were evaluated for growth inhibitory properties against an NCI panel of 60 human cancer cell lines derived from nine human cancer cell types, grouped into disease sub-panels that represent leukemia, lung, colon, central nervous system (CNS), melanoma, renal, ovary, breast, and prostate cancer cells. Growth inhibitory (GI50) effects were measured as a function of the variation of optical density as a percentage of control.

ACHN = experiment: NCI 60 growth inhibition; format: cell-based, human; details: Homo sapiens, Renal Cancer, Table 2
Method: as §1

BT-549 = experiment: NCI 60 growth inhibition; format: cell-based, human; details: Homo sapiens; BT-549, Breast Cancer, Table 2
Method: as §1

CAKI-1 = experiment: NCI 60 growth inhibition; format: cell-based, human; details: Homo sapiens; CAKI-1, Renal Cancer, Table 2
Method: as §1

CCRF-CEM = experiment: NCI 60 growth inhibition; format: cell-based, human; details: Homo sapiens, Leukemia, Table 2
Method: as §1

COLO 205 = experiment: NCI 60 growth inhibition; format: cell-based, human; details: Homo sapiens; COLO 205, Colon Cancer, Table 2
Method: as §1

HCC-2998 = experiment: NCI 60 growth inhibition; format: cell-based, human; details: Homo sapiens; HCC-2998, Colon Cancer, Table 2
Method: as §1

HCT-116 = experiment: NCI 60 growth inhibition; format: cell-based, human; details: Homo sapiens; HCT-116, Colon Cancer, Table 2
Method: as §1

HL-60(TB) = experiment: NCI 60 growth inhibition; format: cell-based, human; details: Homo sapiens; HL-60(TB), Leukemia, Table 2
Method: as §1

HT29 = experiment: NCI 60 growth inhibition; format: cell-based, human; details: Homo sapiens; HT-29, Colon Cancer, Table 2
Method: as §1

IGROV1 = experiment: NCI 60 growth inhibition; format: cell-based, human; details: Homo sapiens, IGROV-1; IGROV1, Ovarian Cancer, Table 2
Method: as §1

K-562 = experiment: NCI 60 growth inhibition; format: cell-based, human; details: Homo sapiens, K562; K-562, Leukemia, Table 2
Method: as §1

LOX IMVI = experiment: NCI 60 growth inhibition; format: cell-based, human; details: Homo sapiens, Melanoma, Table 2
Method: as §1

M14 = experiment: NCI 60 growth inhibition; format: cell-based, human; details: Homo sapiens; M14, Melanoma, Table 2
Method: as §1

MALME-3M = experiment: NCI 60 growth inhibition; format: cell-based, human; details: Homo sapiens, Melanoma, Table 2
Method: as §1

MCF7 = experiment: NCI 60 growth inhibition; format: cell-based, human; details: Homo sapiens; MCF7, Breast Cancer, Table 2
Method: as §1

MDA-MB-435 = experiment: NCI 60 growth inhibition; format: cell-based, human; details: Homo sapiens; MDA-MB-435, Melanoma, Table 2
Method: as §1

MDA-MB-468 = experiment: NCI 60 growth inhibition; format: cell-based, human; details: Homo sapiens; MDA-MB-468, Breast Cancer, Table 2
Method: as §1

MOLT-4 = experiment: NCI 60 growth inhibition; format: cell-based, human; details: Homo sapiens; MOLT-4, Leukemia, Table 2
Method: as §1

NCI-H23 = experiment: NCI 60 growth inhibition; format: cell-based, human; details: Homo sapiens; NCI-H23, Non-Small Cell Lung Cancer, Table 2
Method: as §1

NCI-H322M = experiment: NCI 60 growth inhibition; format: cell-based, human; details: Homo sapiens, Non-Small Cell Lung Cancer, Table 2
Method: as §1

NCI-H522 = experiment: NCI 60 growth inhibition; format: cell-based, human; details: Homo sapiens; NCI-H522, Non-Small Cell Lung Cancer, Table 2
Method: as §1

OVCAR-5 = experiment: NCI 60 growth inhibition; format: cell-based, human; details: Homo sapiens; OVCAR-5, Ovarian Cancer, Table 2
Method: as §1

PC-3 = experiment: NCI 60 growth inhibition; format: cell-based, human; details: Homo sapiens; PC-3, Prostate Cancer, Table 2
Method: as §1

RXF 393 = experiment: NCI 60 growth inhibition; format: cell-based, human; details: Homo sapiens
Method: as §1

SF-539 = experiment: NCI 60 growth inhibition; format: cell-based, human; details: Homo sapiens; SF-539, CNS Cancer, Table 2
Method: as §1

SK-MEL-28 = experiment: NCI 60 growth inhibition; format: cell-based, human; details: Homo sapiens; SK-MEL-28, Melanoma, Table 2
Method: as §1

SK-MEL-2 = experiment: NCI 60 growth inhibition; format: cell-based, human; details: Homo sapiens; SK-MEL-2, Melanoma, Table 2
Method: as §1

SK-MEL-5 = experiment: NCI 60 growth inhibition; format: cell-based, human; details: Homo sapiens; SK-MEL-5, Melanoma, Table 2
Method: as §1

SN12C = experiment: NCI 60 growth inhibition; format: cell-based, human; details: Homo sapiens, Renal Cancer, Table 2
Method: as §1

SNB-19 = experiment: NCI 60 growth inhibition; format: cell-based, human; details: Homo sapiens; SNB-19, CNS Cancer, Table 2
Method: as §1

SW-620 = experiment: NCI 60 growth inhibition; format: cell-based, human; details: Homo sapiens; SW-620, Colon Cancer, Table 2
Method: as §1

T-47D = experiment: NCI 60 growth inhibition; format: cell-based, human; details: Homo sapiens, T47D, Breast Cancer, Table 2
Method: as §1

UACC-257 = experiment: NCI 60 growth inhibition; format: cell-based, human; details: Homo sapiens; UACC-257, Melanoma, Table 2
Method: as §1

UACC-62 = experiment: NCI 60 growth inhibition; format: cell-based, human; details: Homo sapiens; UACC-62, Melanoma, Table 2
Method: as §1

[1] = tested on: NCI panel of 60 human cancer cell lines; experiment: NCI 60 growth inhibition, ranges over groups of cell lines; format: cell-based
Method: as §1

M9 ENL1 cell line = experiment: Anti-leukemic activity, Annexin V/7-AAD flow cytometry; format: cell-based
Method: The newly synthesized triazole derivatives of melampomagnolide B were screened for anti-leukemic activity against M9 ENL1 and primary AML cell lines; the latter were obtained with informed consent from human patients. Evaluations were performed after 24 h of drug exposure using flow cytometric analysis by labeling with Annexin V and 7-aminoactinomycin D (7-AAD) to delineate apoptotic cell populations. In all experiments PTL was included as a reference control.

[2] = RXF 393, RXF 393, Renal Cancer, Table 2
[3] = most of the solid tumor cell lines in the panel, read-out: GI50

`C=C1C(=O)O[C@H]2[C@H]1CC/C(Cn1cc(-c3ccc(F)cc3)nn1)=C\CC[C@@]1(C)O[C@@H]21` [JVM 4-26] showed a GI50 (A549/ATCC) of 3370 nM, a GI50 (ACHN) of 180 nM and a GI50 (BT-549) of 830 nM. The GI50 (CAKI-1) was 1030 nM, the GI50 (CCRF-CEM) was 240 nM and the GI50 (COLO 205) was 450 nM. For the same molecule, the GI50 (HCC-2998) was 1740 nM, the GI50 (HCT-116) was 290 nM and the GI50 (HL-60(TB)) was 720 nM. It also gave a GI50 (HT29) of 690 nM, a GI50 (IGROV1) of 1170 nM and a GI50 (K-562) of 940 nM. The GI50 (LOX IMVI) was 900 nM, the GI50 (M14) was 940 nM and the GI50 (MALME-3M) was 1400 nM. For the same molecule, the GI50 (MCF7) was 350 nM, the GI50 (MDA-MB-435) was 1000 nM and the GI50 (MDA-MB-468) was 420 nM. It also gave a GI50 (MOLT-4) of 380 nM, a GI50 (NCI-H23) of 1780 nM and a GI50 (NCI-H322M) of 4390 nM. For the same molecule, the GI50 (NCI-H522) was 250 nM, the GI50 (OVCAR-5) was 1470 nM and the GI50 (PC-3) was 2000 nM. The GI50 (RXF 393; [2]) was 870 nM, the GI50 (SF-539) was 270 nM and the GI50 (SK-MEL-28) was 820 nM. It also gave a GI50 (SK-MEL-2) of 1830 nM, a GI50 (SK-MEL-5) of 1740 nM and a GI50 (SN12C) of 1640 nM. For the same molecule, the GI50 (SNB-19) was 3390 nM, the GI50 (SW-620) was 420 nM and the GI50 (T-47D) was 740 nM. The GI50 (UACC-257) was 1470 nM, the GI50 (UACC-62) was 1260 nM and the GI50 ([1]; leukemia cell lines CCRF-CEM, HL-60(TB), K-562, MOLT-4 and SR, read-out: growth inhibition values) was 240 to 940 nM. For the same molecule, the GI50 [1, 3] was 180 to 940 nM.

With `C=C1C(=O)O[C@H]2[C@H]1CC/C(Cn1cc(-c3cc(C(F)(F)F)cc(C(F)(F)F)c3)nn1)=C\CC[C@@]1(C)O[C@@H]21` [JVM 4-29, (1aR,7aS,10aS,10bS,E)-5-((4-(3,5-bis(Trifluoromethyl)phenyl)-1H-1,2,3-triazol-1-yl)methyl)-1a-methyl-8-methylene-2,3,6,7,7a,8,10a,10b-octahydrooxireno[2′,3′:9,10]cyclodeca[1,2-b]furan-9(1aH)-one] the EC50 (M9 ENL1 cell line; M9-ENL1, 24 h, 24 h of drug exposure, read-out: M9ENL1 (EC50)) was 600 nM, the “cytotoxicity compared with parthenolide” value (M9 ENL1 cell line; M9 ENL1 cell assay) was “more cytotoxic than parthenolide” and the “fold more potent than parthenolide (PTL)” value (M9 ENL1 cell line; M9 ENL1 cells) was 8.6 fold. For the same molecule, the GI50 (A549/ATCC) was 1360 nM, the GI50 (ACHN) was 160 nM and the GI50 (BT-549) was 170 nM. It also gave a GI50 (CCRF-CEM) of 690 nM, a GI50 (COLO 205) of 140 nM and a GI50 (HCC-2998) of 1170 nM. The GI50 (HCT-116) was 150 nM, the GI50 (HL-60(TB)) was 190 nM and the GI50 (HT29) was 190 nM. It also gave a GI50 (IGROV1) of 840 nM, a GI50 (K-562) of 230 nM and a GI50 (LOX IMVI) of 150 nM. The GI50 (M14) was 350 nM, the GI50 (MALME-3M) was 520 nM and the GI50 (MCF7) was 190 nM. The GI50 (MDA-MB-435) was 740 nM, the GI50 (MDA-MB-468) was 420 nM and the GI50 (MOLT-4) was 190 nM. The GI50 (NCI-H23) was 1120 nM, the GI50 (NCI-H322M) was 1670 nM and the GI50 (NCI-H522) was 120 nM. It also gave a GI50 (OVCAR-5) of 1100 nM, a GI50 (PC-3) of 830 nM and a GI50 (RXF 393; [2]) of 20 nM. The GI50 (RXF 393; RXF 393, RXF 393 renal cancer cell line) was 27 nM, the GI50 (SF-539) was 170 nM and the GI50 (SK-MEL-28) was 460 nM. It also gave a GI50 (SK-MEL-2) of 340 nM, a GI50 (SK-MEL-5) of 1470 nM and a GI50 (SN12C) of 700 nM. The GI50 (SNB-19) was 1710 nM, the GI50 (SW-620) was 190 nM and the GI50 (T-47D) was 330 nM. The GI50 (UACC-257) was 1460 nM, the GI50 (UACC-62) was 340 nM and the GI50 ([1]; all the cell lines in the leukemia sub-panel, read-out: GI50) was 100 to 500 nM. It also gave a GI50 [1, 3] of 120 to 880 nM.
